The record followed here is PMC8581430, “Peptide ligands targeting FGF receptors promote recovery from dorsal root crush injury via AKT/mTOR signaling” (Theranostics, 2021).

Experiment [1] concerns ERK1/2 (phosphorylated) in DRG explants. Put plainly: Western blot of phosphorylated ERK1/2 in DRG explants. It is filed as cell-based, rat. The note with it: CH02 20 μM + BGJ398 2 μM, 4 h, n = 3. The source says: (§1) Figure 6 Phosphoproteomic profiling of the intracellular signaling pathway used by CH02 for augmenting nerve regeneration. (A) GO biological process analysis of proteins corresponding to differentially expressed phosphorylated peptides. Ordinates indicate the enriched GO terms; abscissae represent the gene ratio; size of the dots indicates the number of proteins enriched in this biological process. (B) KEGG pathway analysis of proteins corresponding to differentially expressed phosphorylated peptides. Ordinates indicate the enriched pathway term; abscissae represent the gene ratio; size of the dots indicates number of proteins enriched in this pathway. […] (D-E) Quantification of p-ERK1/2 and p-AKT expression levels. n = 3 independent experiments. Relative protein expression level was quantified after normalization to the corresponding total proteins. […] (G-H) Quantification of p-ERK1/2 and p-AKT expression levels. n = 3 independent experiments. Relative protein expression level was quantified after normalization to the corresponding total proteins. […] The axon is shown in fluorescence (NF200) images. […] For quantification of axon length, neurons were immunostained using an antibody against β-tubulin. […] (N) Quantification of TUNEL-positive neurons (M) using ImageJ software (n = 5 for each condition; ***p < 0.001 by one-way ANOVA with Dunnett's test; mean ± SEM). […]

Experiment [2] has as its system AKT (phosphorylated) in DRG explants. In words: Western blot of phosphorylated AKT in DRG explants. It is filed as cell-based, rat. The note with it: CH02 20 μM + BGJ398 2 μM, 4 h, n = 3.
Source text: as §1
A general note: Immunoblotting shows a protein as a band on a membrane.

Molecules are shown by their SMILES.

`CCN1CCN(c2ccc(Nc3cc(N(C)C(=O)Nc4c(Cl)c(OC)cc(OC)c4Cl)ncn3)cc2)CC1` [BGJ398]: the “effect of inhibitor on CH02-upregulated phosphorylated ERK” value in experiment [1] was “counteracted CH02 effect on upregulating phosphorylated AKT and ERK levels”. The “effect of inhibitor on CH02-upregulated phosphorylated AKT” value in experiment [2] is “counteracted CH02 effect on upregulating phosphorylated AKT and ERK levels”.
